Results published in US8309557B2, “Pyrimidin-4-ylpropanedinitrile derivatives, processes for their preparation and their use as herbicides and plant growth regulators” (Bayer Intellectual Property GmbH, priority 2009, dated 2012).

What was measured:
Type in all cases: in vivo
Matricaria inodora = experiment: Herbicidal effect post-emergence, MATIN
Procedure: (§1) Seeds of mono- and dicotyledonous weed plants and crop plants are planted in wood-fiber pots in sandy loam, covered with earth and grown in a greenhouse under good growth conditions. 2 to 3 weeks after sowing, the test plants are treated in the single-leaf stage. The compounds according to the invention, formulated in the form of wettable powders (WP) or as emulsion concentrates (EC), are then sprayed onto the green plant parts as aqueous suspension or emulsion using an application rate of 600 to 800 l of water/ha (converted) with the addition of 0.2% by weight of wetting agent. After the test plants had been in the greenhouse for ca. 3 weeks under optimum growth conditions, the effect of the preparations is scored visually in comparison with untreated controls (herbicidal effect in percent (%): 100% effect=plants have died off, 0% effect=as control plants).

Amaranthus retroflexus [1] = experiment: Herbicidal effect post-emergence, AMARE
Procedure: as §1

Veronica persica [2] = experiment: Herbicidal effect post-emergence, VERPE
Procedure: as §1

Setaria viridis = experiment: Herbicidal effect post-emergence, SETVI
Procedure: as §1

Abutilon theophrasti = experiment: Herbicidal effect post-emergence, ABUTH
Procedure: as §1

Veronica persica [3] = experiment: Herbicidal effect pre-emergence, VERPE; details: 320 g/hectare, visual grading after 3 weeks vs untreated controls
Text: (§2) Seeds of mono- and dicotyledonous weed plants and crop plants are planted in wood-fiber pots in sandy loam and covered with earth. The compounds according to the invention, formulated in the form of wettable powders (WP) or as emulsion concentrates (EC), are then applied to the surface of the covering earth as aqueous suspension or emulsion at an application rate corresponding to 320 g/hectare at an application rate of 600 to 800 l of water/ha (converted) with the addition of 0.2% wetting agent.
(§3) Following treatment, the pots are placed in a greenhouse and kept under good growth conditions for the test plants. The visual grading of the damage to the test plants is carried out after a test time of 3 weeks in comparison to untreated controls (herbicidal effect in percent (%): 100% effect=plants have died off, 0% effect=as control plants).

Viola tricolor [4] = experiment: Herbicidal effect pre-emergence, VIOTR; details: 320 g/hectare, visual grading after 3 weeks vs untreated controls
Text: as §2, §3

Viola tricolor [5] = experiment: Herbicidal effect post-emergence, VIOTR
Procedure: as §1

Echinochloa crus-galli = experiment: Herbicidal effect post-emergence, ECHCG
Procedure: as §1

Amaranthus retroflexus [6] = experiment: Herbicidal effect pre-emergence, AMARE; details: 320 g/hectare, visual grading after 3 weeks vs untreated controls
Text: as §2, §3

Stellaria media = experiment: Herbicidal effect post-emergence, STEME
Procedure: as §1

[7] = system: Polygonum (Fallopia) convolvulus; experiment: Herbicidal effect post-emergence, POLCO
Procedure: as §1

SMILES	Effect in % in respect of stated plant, MATIN (Matricaria inodora)	Effect in % in respect of stated plant, AMARE (Amaranthus retroflexus [1])	Effect in % in respect of stated plant, VERPE (Veronica persica [2])	Effect in % in respect of stated plant, SETVI (Setaria viridis)	Effect in % in respect of stated plant, ABUTH (Abutilon theophrasti)	Effect in % in respect of stated plant, VERPE (Veronica persica [3])	Effect in % in respect of stated plant, VIOTR (Viola tricolor [4])	Effect in % in respect of stated plant, VIOTR (Viola tricolor [5])	Effect in % in respect of stated plant, ECHCG (Echinochloa crus-galli)	Effect in % in respect of stated plant, AMARE (Amaranthus retroflexus [6])	Effect in % in respect of stated plant, STEME (Stellaria media)	Effect in % in respect of stated plant, POLCO [7]
N.N#CC(C#N)c1nc(-c2ccc(F)cc2)nc(N)c1Cl [Compound 300]	80%	80%	80%	–	–	–	–	–	–	–	–	–
CN.N#CC(C#N)c1nc(-c2ccc(Cl)cc2)nc(N)c1Cl [Compound 309]	85%	95%	90%	80%	90%	100%	100%	85%	90%	85%	80%	90%
N.N#CC(C#N)c1nc(-c2ccc(Cl)cc2)nc(N)c1Br [Compound 313]	90%	100%	100%	–	80%	–	–	80%	–	–	90%	–
N.N#CC(C#N)c1nc(-c2ccc(Br)cc2)nc(N)c1Cl [Compound 321]	100%	100%	90%	80%	90%	100%	100%	90%	90%	90%	80%	100%
N#C[C-](C#N)c1nc(-c2ccc(Cl)c(Cl)c2)nc(N)c1Cl.[Na+] [Compound 340]	90%	90%	90%	–	80%	–	–	–	–	–	–	90%
N.N#CC(C#N)c1nc(-c2ccc(Cl)cc2Cl)nc(N)c1Cl [Compound 375]	90%	100%	90%	–	90%	100%	80%	–	–	100%	–	100%
N.N#CC(C#N)c1nc(-c2ccc(F)cc2F)nc(N)c1Cl [Compound 383]	90%	90%	90%	–	80%	–	–	–	–	–	–	100%
Cc1ccc(-c2nc(N)c(Cl)c(C(C#N)C#N)n2)cc1F.N [Compound 385]	80%	100%	–	–	80%	–	–	–	–	–	–	80%
Cc1cc(-c2nc(N)c(Cl)c(C(C#N)C#N)n2)ccc1F.N [Compound 389]	–	80%	80%	–	80%	–	–	–	–	–	–	80%
N.N#CC(C#N)c1nc(-c2cccc(Cl)c2Cl)nc(N)c1Cl [Compound 390]	–	90%	80%	–	–	–	–	–	–	–	–	80%
Cc1ccc(-c2nc(N)c(Cl)c(C(C#N)C#N)n2)c(F)c1.N [Compound 391]	–	–	–	–	–	–	–	–	–	–	–	80%
N.N#CC(C#N)c1nc(-c2ccc(Br)cc2F)nc(N)c1Cl [Compound 392]	100%	100%	90%	80%	90%	100%	100%	90%	80%	80%	90%	90%
